Values of other authors, collected in patent publication US20150031737A1, “STABILIZED CONTROLLED-RELEASE PHARMACEUTICAL COMPOSITION COMPRISING GLICLAZIDE” (RANBAXY LABORATORIES LIMITED, priority 2012, published 2015).

pKa: about 5.8
SMILES: Cc1ccc(S(=O)(=O)NC(=O)NN2CC3CCCC3C2)cc1 (stereo not shown) [Gliclazide]
